Where “and” joins values, the source holds several entries; their conditions need not be identical. Equal entries are not always repeated. Structures can show the parent of a compound that is named as a salt.

In the first assay the target is T1, Human recombinant MMP-13 (Homo sapiens, UniProt P45452).
T1 construct: made in house; host or cells: baculovirus / insect cells
Nature of the assay: In vitro MMP inhibition, Ki determination (fluorogenic substrate II). It is filed as biochemical. The settings on record: substrate (II) 4 μM, 1 hr room temperature; apparent Ki, values in parenthesis. The method, then: Several hydroxamates and salts thereof were analyzed in in vitro assays to determine their ability to inhibit the MMP cleavage of peptide substrates. Inhibition (Ki) and IC50 constants were calculated from the assayed hydroxamate-MMP interactions.
Human recombinant MMP-1, MMP-2, MMP-9, MMP-13, and MMP-14 were used in this assay. All enzymes were prepared in Assignee's laboratories following usual laboratory procedures. Protocols for the preparation and use of these enzymes are available in the scientific literature. See, e.g., Enzyme Nomenclature (Academic Press, San Diego, Calif., 1992) (and the citations therein). See also, Frije et al., J. Biol. Chem., 26(24), 16766-73 (1994).
The expressed proenzyme was first purified over a heparin agarose column, and then over a chelating zinc chloride column. The proenzyme was then activated by APMA for use in the assay. Further details on baculovirus expression systems may be found in, for example, Luckow et al., J. Virol., 67, 4566-79 (1993). See also, O'Reilly et al, Baculovirus Expression Vectors: A Laboratory Manual (W. H. Freeman and Co., New York, N.Y., 1992). See also, King et al., The Baculovirus Expression System: A Laboratory Guide (Chapman & Hall, London, England, 1992).
All MMPs were activated using 4-aminophenylmercuric acetate (“APMA”, Sigma Chemical, St. Louis, Mo.) or trypsin. MMP-9 also was activated using human recombinant MMP-3 (purified in Assignee's laboratory following standard cloning and purification techniques).
Two fluorogenic, methoxycoumarin-containing polypeptide substrates were used in the MMP inhibition assays:
MCA-ArgProLeuGlyLeuDpaAlaArgGluArgNH2 (II)
Here, “Dpa” is 3-(2,4-dinitrophenyl)-L-2,3-diaminopropionyl group, and “MCA” is 7-methoxycoumarin-4-yl acetyl. Substrate (I) was purchased from Baychem (Redwood City, Calif.), and substrate II was prepared Assignee's laboratory. Substrate I was used in the IC50 determination assays, while substrate II was used in the Ki determination assays. In the absence of MMP inhibitory activity, either substrate is cleaved at the Gly-Leu peptide bond. This cleavage separates the highly fluorogenic peptide from the 2,4-dinitrophenyl quencher, thus resulting in increase of fluorescent intensity.
The stock solutions of the assayed hydroxamates (or salts thereof) were prepared in 1% dimethyl sulfoxide (DMSO). These stock solutions were diluted in Buffer A (100 mM Tris-HCl, 100 mM NaCl, 10 mM CaCl2, 0.05% polyoxyethylene 23 lauryl ether, pH 7.5) to obtain solutions with different hydroxamate concentrations, i.e., assay solutions with different concentrations of the assayed MMP inhibitory compound. The experiment controls contained the same amount of Buffer A/DMSO as the assayed sample, but contained no hydroxamate (or salt thereof).
The assays from which the Ki determinations were made were performed as follows. The assayed hydroxamate samples were incubated in separate wells of untreated white polystyrene plates (Nunc Nalgene International, Rochester, N.Y.), and analyzed on a Tecan SpectraFlour Plus plate reader. The excitation wavelength was 330 nm, and the emission wavelength—420 nm. All samples (assayed hydroxamates and controls) were incubated in separate plate wells at room temperature for 1 hr in the presence of 4 μM of MMP substrate (II). In the absence of MMP inhibitory activity, substrate II was cleaved at the Gly-Leu bond resulting in an increase of relative fluorescence. Inhibition was observed as a reduced rate of this increase in relative fluorescence. The various hydroxamates were analyzed using a single low enzyme concentration with a single substrate concentration fixed at or below the Km. This protocol is a modification of method by Knight et al., FEBS Lett., 296(3), 263-266 (1992). Apparent inhibitory constants were determined by non-linear regression of reaction velocity as a function of inhibitor and enzyme concentration using Morrison's equation, as described by Kuzmic, Anal. Biochem. 286, 45-50 (2000). […]
Take `O=C(NO)C1(S(=O)(=O)c2ccc(OCCCc3nc(-c4ccc(OC(F)(F)F)cc4)no3)cc2)CCOCC1` [Example 31, tetrahydro-N-hydroxy-4-[[4-[3-[3[4-(trifluoromethoxy)phenyl]-1,2,4-oxadiazol-5-yl]propoxy]phenyl]sulfonyl]-2H-pyran-4-carboxamide]: the Ki amounted to 1.5 nM.

For `O=C(NO)C1(S(=O)(=O)c2ccc(OCCCc3cccc(-c4ccc(F)cc4)c3)cc2)CCOCC1` [Example 39], the Ki was determined as 3.04 nM.

In the case of `O=C(NO)C1(S(=O)(=O)c2ccc(OCCc3cccc(-c4ccccn4)c3)cc2)CCOCC1` [Example 40], the Ki was 0.58 nM.

With `CCN1CCC(C(=O)NO)(S(=O)(=O)c2ccc(OCCCc3nc(-c4ccc(OC(F)(F)F)cc4)no3)cc2)CC1` [Example 41, 1-ethyl-N-hydroxy 4-{[4-(3-{3-[4-(trifluoromethoxy)phenyl]-1,2,4-oxadiazol-5-yl}propoxy)phenyl]sulfonyl}piperidine-4-carboxamide Hydrochloride], the Ki amounted to 1.06 nM.

Turning to `COCCN1CCC(C(=O)NO)(S(=O)(=O)c2ccc(OCCCc3nc(-c4ccc(OC(F)(F)F)cc4)no3)cc2)CC1` [Example 42], the Ki is 0.486 nM.

On to `CCN1CCC(C(=O)NO)(S(=O)(=O)c2ccc(OCCCc3cccc(-c4ccccc4)c3)cc2)CC1` [Example 46], for which the Ki amounted to 2.29 nM.

As for `COCCN1CCC(C(=O)NO)(S(=O)(=O)c2ccc(OCCCc3cc(-c4ccc(F)cc4F)cs3)cc2)CC1` [Example 47, 4-[(4-{3-[4-(2,4-difluorophenyl)thien-2-l]propoxy}phenyl)sulfonyl]-N-hydroxy-1-(2-methoxyethyl)piperidine-4-carboxamide Hydrochloride], the Ki was 0.304 nM and 0.423 nM.

Consider `COCCN1CCC(C(=O)NO)(S(=O)(=O)c2ccc(OCCCn3nnc(-c4ccc(OC(F)(F)F)cc4)n3)cc2)CC1` [Example 48], for which the Ki came to 0.127 nM.

Consider `O=C(NO)C1(S(=O)(=O)c2ccc(OCCCn3nnc(-c4ccc(OC(F)(F)F)cc4)n3)cc2)CCN(C2CC2)CC1` [Example 49], for which the Ki was found to be 0.439 nM.

Regarding `O=C(NO)C1(S(=O)(=O)c2ccc(OCCCc3nc(-c4ccc(OC(F)(F)F)cc4)no3)cc2)CCN(C2CC2)CC1` [Example 51, 1-cyclopropyl-N-hydroxy-4-{[4-(3-{3-[4-(trifluoromethoxy)phenyl]-1,2,4-oxadiazol-5-yl}propoxy)phenyl]sulfonyl}piperidine-4-carboxamide Hydrochloride], the Ki turned out to be 1.7 nM.

In the case of `O=C(NO)C1(S(=O)(=O)c2ccc(OCCCn3nnc(-c4ccc(OC(F)(F)F)cc4)n3)cc2)CCN(CC2CC2)CC1` [Example 53], the Ki is 0.662 nM.

Staying with this assay, now noted: value in parenthesis.
As for `O=C(NO)C1(S(=O)(=O)c2ccc(OCCCc3cccc(-c4ccco4)c3)cc2)CCOCC1` [Example 97], the Ki came to 5.57 nM.

Consider `O=C(NO)C1(S(=O)(=O)c2ccc(OCCCc3cccc(Cc4ccccc4)c3)cc2)CCOCC1` [Example 98], for which the Ki turned out to be 9.15 nM.

For `O=C(NO)C1(S(=O)(=O)c2ccc(OCCc3cccc(-c4ccncc4)c3)cc2)CCOCC1` [Example 113], the Ki worked out at 0.312 nM.

On to `O=C(NO)C1(S(=O)(=O)c2ccc(OCCc3cccc(-c4ccccc4F)c3)cc2)CCOCC1` [Example 115], for which the Ki came out at 2.24 nM.

Take `O=C(NO)C1(S(=O)(=O)c2ccc(OCCc3cccc(-c4ccc(F)cc4)c3)cc2)CCOCC1` [Example 123]: the Ki was 7.35 nM.

As to `O=C(NO)C1(S(=O)(=O)c2ccc(OCCc3cccc(-c4cccnc4)c3)cc2)CCOCC1` [Example 125], the Ki came out at 0.17 nM.

On to `Cc1ccc(-c2cccc(CCOc3ccc(S(=O)(=O)C4(C(=O)NO)CCOCC4)cc3)c2)cc1` [Example 127], for which the Ki was found to be 16.2 nM.

Regarding `O=C(NO)C1(S(=O)(=O)c2ccc(OCCCc3cccc(-c4ccc(F)cc4)c3)cc2)CCN(C2CC2)CC1` [Example 139], the Ki was determined as 2.89 nM.

In the case of `COCCN1CCC(C(=O)NO)(S(=O)(=O)c2ccc(OCCCc3cccc(-c4ccc(F)cc4)c3)cc2)CC1` [Example 140], the Ki came to 0.895 nM.

For `O=C1Nc2ccc(-c3noc(CCCOc4ccc(S(=O)(=O)C5(C(=O)NO)CCN(C6CC6)CC5)cc4)n3)cc21` [Example 142], the Ki stood at 1.34 nM.

As for `O=C(NO)C1(S(=O)(=O)c2ccc(OCCCc3cccc(-c4ccc(OC(F)(F)F)cc4)c3)cc2)CCOCC1` [Example 147], the Ki amounted to 23.9 nM.

Regarding `O=C(NO)C1(S(=O)(=O)c2ccc(OCCCc3cccc(-c4ccccn4)c3)cc2)CCOCC1` [Example 148], the Ki came to 1.72 nM.

On to `O=C(NO)C1(S(=O)(=O)c2ccc(OCCCc3cccc(-c4ccncc4)c3)cc2)CCOCC1` [Example 149], for which the Ki came out at 1.18 nM.

Consider `O=C(NO)C1(S(=O)(=O)c2ccc(OCCCc3cccc(-c4cccnc4)c3)cc2)CCOCC1` [Example 150], for which the Ki is 0.587 nM.

Consider `COCCN1CCC(C(=O)NO)(S(=O)(=O)c2ccc(OCCCc3nc(-c4ccccc4OC(F)(F)F)no3)cc2)CC1` [Example 152], for which the Ki was 2.66 nM.

Turning to `O=C(NO)C1(S(=O)(=O)c2ccc(OCCCc3cccc(Br)c3)cc2)CCOCC1` [Example 154], the Ki is 0.95 nM.

For the compound `CCc1ccccc1-c1noc(CCCOc2ccc(S(=O)(=O)C3(C(=O)NO)CCN(CCOC)CC3)cc2)n1` [Example 155], the Ki came out at 1.58 nM.

Regarding `O=C(NO)C1(S(=O)(=O)c2ccc(OCCOc3cccc(-c4ccccc4)c3)cc2)CCOCC1` [Example 157], the Ki came to 4.01 nM.

On to `O=C(NO)C1(S(=O)(=O)c2ccc(OCCCc3cccc(-c4cccc(F)c4)c3)cc2)CCOCC1` [Example 161], for which the Ki came to 20.3 nM.

As for `O=C(NO)C1(S(=O)(=O)c2ccc(OCCCc3cccc(-c4ccccc4Cl)c3)cc2)CCOCC1` [Example 162], the Ki was determined as 12 nM.

In the case of `O=C(NO)C1(S(=O)(=O)c2ccc(OCCCc3cccc(-c4ccccc4F)c3)cc2)CCOCC1` [Example 163], the Ki was 11.6 nM.

On to `Cc1ccccc1-c1cccc(CCCOc2ccc(S(=O)(=O)C3(C(=O)NO)CCOCC3)cc2)c1` [Example 164], for which the Ki was 6.85 nM.

On to `Cc1ccc(-c2cccc(CCCOc3ccc(S(=O)(=O)C4(C(=O)NO)CCOCC4)cc3)c2)cc1C` [Example 165], for which the Ki is 144 nM.

As to `COCCN1CCC(C(=O)NO)(S(=O)(=O)c2ccc(OCCCc3nc(-c4ccc(CC(C)C)cc4)no3)cc2)CC1` [Example 175], the Ki was 2.01 nM.

Regarding `COCCN1CCC(C(=O)NO)(S(=O)(=O)c2ccc(OCCCc3nnc(-c4ccccc4C(F)(F)F)o3)cc2)CC1` [Example 178], the Ki came to 1.71 nM.

Regarding `O=C(CCCOc1ccc(S(=O)(=O)C2(C(=O)NO)CCOCC2)cc1)Nc1cccc(OC(F)(F)F)c1` [Example 181], the Ki was determined as 0.27 nM.

Regarding `CC(C)c1cccc(NC(=O)CCCOc2ccc(S(=O)(=O)C3(C(=O)NO)CCOCC3)cc2)c1` [Example 182], the Ki worked out at 0.212 nM.

Consider `COCCN1CCC(C(=O)NO)(S(=O)(=O)c2ccc(OCCCc3nc(-c4ccc(OC(F)(F)F)cc4)no3)cc2)CC1` [Example 190], for which the Ki amounted to 0.6 nM.

On to `O=C(NO)C1(S(=O)(=O)c2ccc(OCCCc3ccnc(-c4ccccc4)c3)cc2)CCOCC1` [Example 197], for which the Ki stood at 0.37 nM.

As to `O=C(CCCc1ccc(S(=O)(=O)C2(C(=O)NO)CCOCC2)cc1)c1cccc(-c2ccccc2)c1` [Example 219], the Ki was 0.355 nM.

As for `O=C(CCCOc1ccc(S(=O)(=O)C2(C(=O)NO)CCOCC2)cc1)Nc1ccc(OC(F)(F)F)cc1` [Example 228], the Ki amounted to 0.324 nM.

In the case of `Cc1cc(OC(F)(F)F)ccc1NC(=O)CCCOc1ccc(S(=O)(=O)C2(C(=O)NO)CCOCC2)cc1` [Example 229], the Ki worked out at 0.27 nM.

For the origin of these results see patent US20040024024A1, “Aromatic sulfone hydroxamates and their use as protease inhibitors” (priority 2001, published 2004).
